Experimental data reported in patent US20100204128A1, “NOVEL PEPTIDES” (SANARE INVESTMENT AS, priority 2007, published 2010).
Several values for one entry are separate records, joined by “and”; a condition that tells them apart may be missing. Equal entries are not always repeated.

What was measured:
Format in all cases: cell-based
Details in all cases: 24 hours, duplicate wells
MCF-7 cells = assay: AlmarBlue fluorescence cell growth test, MCF-7 cells
Method: (§1) Re-feed media were prepared to yield the following final six concentrations of each of the 12 peptides: 5×10^−3, 5×10^−4, 5×10^−5, 5×10^−6, 5×10^−7, and 5×10^−8M. […] With that, the 5×10^−3M mixture contains about 0.42×10^−3M of each peptide. […] With that, the 5×10^−3M mixture contains about 0.42×10^−3M of each of said 8 peptides.
(§2) MCF-7 and T47D cells were seeded into 96-well plates at a density of 10,000 cells per well in 90 μL of appropriate culture medium. TMX2-28 cells were seeded into 96-well plates at a density of 5,000 cells per well in 90 μL of appropriate culture medium. Plates were placed in a 37° C., 5% CO2 incubator and cells were allowed to attach to the bottom of the well for 24 hours after which 10 μL of the appropriate refeed medium was added. Each concentration was tested in duplicate in each cell line. […] Cells were then incubated for 24 hours. Subsequently 10 μL of AlmarBlue (Biosource) was added to each well. After three hours, the fluorescence was detected using a Packard Instrument Plate Reader with 535/20 excitation and 590/20 emission filters.

T47D cells = assay: AlmarBlue fluorescence cell growth test, T47D cells
Method: as §1, §2

TMX2-28 cells = assay: AlmarBlue fluorescence cell growth test, TMX2-28 cells
Method: With that, the 5×10^−3M mixture contains about 0.42×10^−3M of each peptide. Furthermore, mixtures containing equal volumes of peptides SEQ ID NO:2-SEQ ID NO:7, SEQ ID NO:10 and SEQ ID NO:11 were also prepared (equal volumes of said re-feed media) to yield the following final six concentrations: […] With that, the 5×10^−3M mixture contains about […].
as §2

[1] = 5 × 10^−4 M (mixtures: total concentration), decrease vs DC5 = reduced cell growth
[2] = 5 × 10^−5 M (mixtures: total concentration)
[3] = 5 × 10^−6 M (mixtures: total concentration)
[4] = 5 × 10^−7 M (mixtures: total concentration)
[5] = 5 × 10^−8 M (mixtures: total concentration)
[6] = 5 × 10^−9 M (mixtures: total concentration)

Row | Substance | fluorescent readings (MCF-7 cells; [1]) | fluorescent readings (MCF-7 cells; [2]) | fluorescent readings (MCF-7 cells; [3]) | fluorescent readings (MCF-7 cells; [4]) | fluorescent readings (MCF-7 cells; [5]) | fluorescent readings (MCF-7 cells; [6]) | fluorescent readings (T47D cells; [1]) | fluorescent readings (T47D cells; [2]) | fluorescent readings (T47D cells; [3]) | fluorescent readings (T47D cells; [4]) | fluorescent readings (T47D cells; [5]) | fluorescent readings (T47D cells; [6]) | fluorescent readings (TMX2-28 cells; [1]) | fluorescent readings (TMX2-28 cells; [2]) | fluorescent readings (TMX2-28 cells; [3]) | fluorescent readings (TMX2-28 cells; [4]) | fluorescent readings (TMX2-28 cells; [5]) | fluorescent readings (TMX2-28 cells; [6])
1 | SEQIDNO6: synthesised peptide identified in the 10 kDa blood fraction after acupuncture; sequence not printed in the text (RKEGKGERE; Derived from human blood sample) | 69282 and 66723 | 69071 and 69114 | 67961 and 70454 | 66967 and 68329 | 65221 and 65987 | 60855 and 61454 | 60992 and 68394 | 57868 and 68983 | 66902 and 68862 | 65508 and 66620 | 65244 and 64730 | 61392 and 63577 | 68949 and 68566 | 70355 and 69358 | 70389 and 69887 | 71096 and 70512 | 70707 and 71208 | 62308 and 64367
2 | SEQIDNO5: synthesised peptide identified in the 10 kDa blood fraction after acupuncture; sequence not printed in the text (REVQGAFLRFMACLLKGYRV; Derived from human blood sample) | 56679 and 54497 | 61089 and 62458 | 61618 and 65571 | 61677 and 66372 | 62738 and 64281 | 57537 and 60120 | 54287 and 54068 | 61500 and 65566 | 63089 and 64735 | 64043 and 64408 | 62339 and 63402 | 61350 and 61820 | 27056 and 29836 | 62564 and 67140 | 67405 and 69619 | 69438 and 69605 | 70141 and 70591 | 69376 and 67302
3 | SEQIDNO10: synthesised peptide identified in the 10 kDa blood fraction after acupuncture; sequence not printed in the text (GGVLSPADKTNVK; Derived from human blood sample) | 66888 and 71581 | 67041 and 68134 | 68442 and 69458 | 67343 and 65315 | 62238 and 64184 | 62410 and 63264 | 58905 and 62040 | 62235 and 61799 | 61232 and 61422 | 61576 and 62488 | 62058 and 61865 | 63213 and 64672 | 74950 and 67668 | 70143 and 70096 | 68926 and 71006 | 68674 and 69541 | 67904 and 70174 | 64358 and 65678
4 | SEQIDNO12: synthesised peptide identified in the 10 kDa blood fraction after acupuncture; sequence not printed in the text (PVLTLDMPSSERGK; Derived from human blood sample) | 64634 and 66223 | 67452 and 68292 | 67604 and 67923 | 65967 and 68650 | 64530 and 64993 | 59810 and 61717 | 57184 and 62215 | 62230 and 62786 | 64065 and 63826 | 64023 and 65295 | 65019 and 65289 | 62179 and 65227 | 64801 and 66313 | 67335 and 67800 | 69868 and 69586 | 67062 and 68845 | 68382 and 67167 | 66458 and 66191
5 | SEQIDNO4: synthesised peptide identified in the 10 kDa blood fraction after acupuncture; sequence not printed in the text (KFLQAKFYQLSLERP; Derived from human blood sample) | 64475 and 66716 | 63637 and 66597 | 65699 and 66767 | 64278 and 64885 | 64878 and 64702 | 61356 and 61062 | 65000 and 63427 | 66449 and 66303 | 66808 and 65677 | 65859 and 65314 | 66040 and 64619 | 57800 and 59394 | 68299 and 67310 | 67939 and 68552 | 69917 and 70618 | 70744 and 72469 | 71761 and 72585 | 70255 and 70823
